Data reported in ChEMBL document CHEMBL5523667, “Blood-stage antimalarial activity, favourable metabolic stability and in vivo toxicity of novel piperazine linked 7-chloroquinoline-triazole conjugates” (Eur J Med Chem, 2024).
Activity calls are given as the source filed them. No cut-off for these calls is given here.

Key:
[1] = Metabolic stability in human liver S9 fraction assessed as intrinsic clearance at 2 uM measured 90 mins by LC-MS/MS analysis; type: ADME, subcellular; details: read-out: CLH
Plasmodium falciparum [2] = experiment: Resistance index, ratio of IC50 for antimalarial activity against chloroquine-resistant Plasmodium falciparum K1 to IC50 for antimalarial activity against chloroquine-sensitive Plasmodium falciparum NF54; type: functional
Plasmodium berghei = experiment: Antimalarial activity against Plasmodium berghei ANKA infected in female BALB/c mouse assessed as reduction in parasitemia at 50 mg/kg, ip measured on day 4 post infection by Giemsa staining based light microscopy (Rvb >17 %); type: functional; parameters: scale not given: the % may be the effect or the level left
[3] = Toxicity in mouse assessed as cell necrosis in kidney at 100 to 200 mg/kg measured after 7 days by hematoxylin and eosin staining based analysis; type: organism-based; details: in vivo, 168 h, dose 100-200 mg/kg, time 7 day
Falcipain 2 = target: T1, Falcipain 2 (Plasmodium falciparum, UniProt Q9N6S8); experiment: Competitive inhibition of N-terminal 6His-tagged recombinant Plasmodium falciparum FP2 expressed in Escherichia coli M15 assessed as inhibition constant using Z-Phe-Arg-AMC as substrate measured after 30 mins by microplate reader analysis
T1 sequence (Q9N6S8 whole entry): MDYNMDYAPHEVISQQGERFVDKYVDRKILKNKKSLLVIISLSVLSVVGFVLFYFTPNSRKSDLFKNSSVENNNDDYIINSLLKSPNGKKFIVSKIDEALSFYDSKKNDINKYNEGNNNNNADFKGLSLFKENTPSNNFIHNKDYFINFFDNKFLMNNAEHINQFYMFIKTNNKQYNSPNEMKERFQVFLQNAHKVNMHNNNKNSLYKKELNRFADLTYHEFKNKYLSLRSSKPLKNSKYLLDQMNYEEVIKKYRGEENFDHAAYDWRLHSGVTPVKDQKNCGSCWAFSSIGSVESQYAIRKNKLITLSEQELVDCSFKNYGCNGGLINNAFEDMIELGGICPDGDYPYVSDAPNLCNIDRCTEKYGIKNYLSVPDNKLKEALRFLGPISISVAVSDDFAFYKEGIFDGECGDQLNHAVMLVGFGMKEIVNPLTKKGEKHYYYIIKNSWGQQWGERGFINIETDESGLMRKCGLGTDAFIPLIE

[4] = Metabolic stability in mouse liver S9 fraction assessed as intrinsic clearance at 2 uM measured for 90 mins by LC-MS/MS analysis; type: ADME, subcellular; details: read-out: CLH
Plasmodium falciparum [5] = experiment: Antimalarial activity against schizont stage Plasmodium falciparum infected in erythrocytes assessed as decrease in falcipain-mediated substrate hydrolysis by measuring reduction in fluorescence intensity of the fluorogenic peptide at 5 uM pre-incubated for 1 hr followed by Z-Phe-Arg-AMC substrate addition and measured after 5 to 10 mins by confocal microscopic analysis; type: functional, organism-based; details: Erythrocyte, time 65-70 min
Plasmodium falciparum [6] = experiment: Antimalarial activity against chloroquine-sensitive Plasmodium falciparum NF54 assessed as inhibition of parasite growth by lactate dehydrogenase assay; type: functional, organism-based
[7] = Toxicity in mouse assessed as frequency of rearing activity at 100 mg/kg measured over 5 mins by open field arena test (reference value: 18.14 +/- 2.6 sec); type: organism-based; details: in vivo
[8] = Drug metabolism in human liver S9 fraction assessed as mono-hydroxylation mediated metabolite formation at 2 uM measured for 90 mins by LC-MS/MS analysis; type: ADME, subcellular; details: s9, 1.5 h
[9] = Toxicity in mouse assessed as frequency of rearing activity at 200 mg/kg measured over 5 mins by open field arena test (reference value: 18.14 +/- 2.6 sec); type: organism-based; details: in vivo
[10] = Toxicity against mouse assessed as effect on complete blood count at 100 to 200 mg/kg measured after 7 days by automated hematology analyzer; type: organism-based; details: in vivo, 168 h, dose 100-200 mg/kg, time 7 day
Plasmodium falciparum [11] = experiment: Antimalarial activity against synchronized-schizont stage chloroquine-sensitive Plasmodium falciparum 3D7 assessed as delay in progression measured upto 60 hrs by Giemsa staining based light microscopic analysis; type: functional, organism-based
[12] = target: T2, Falcipain-3 (Plasmodium falciparum 3D7) (UniProt Q8IIL0); experiment: Inhibition of N-terminal 6His-tagged recombinant Plasmodium falciparum FP3 expressed in Escherichia coli M15 using Z-Phe-Arg-AMC as substrate at 5 uM measured after 30 mins by microplate reader analysis relative to control
T2 sequence (whole entry): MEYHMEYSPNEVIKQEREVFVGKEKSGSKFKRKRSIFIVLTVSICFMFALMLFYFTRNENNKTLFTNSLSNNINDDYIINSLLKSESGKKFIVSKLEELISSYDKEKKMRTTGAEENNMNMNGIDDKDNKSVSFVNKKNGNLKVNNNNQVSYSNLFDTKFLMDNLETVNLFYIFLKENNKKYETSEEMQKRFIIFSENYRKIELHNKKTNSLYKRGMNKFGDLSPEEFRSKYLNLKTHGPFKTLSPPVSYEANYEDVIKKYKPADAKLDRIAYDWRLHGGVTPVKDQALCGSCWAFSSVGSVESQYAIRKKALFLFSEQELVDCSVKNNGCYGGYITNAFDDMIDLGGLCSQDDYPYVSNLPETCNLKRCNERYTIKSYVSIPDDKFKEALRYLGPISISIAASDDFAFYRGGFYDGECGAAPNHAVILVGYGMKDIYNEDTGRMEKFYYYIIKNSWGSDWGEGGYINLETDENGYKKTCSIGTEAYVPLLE

Plasmodium falciparum [13] = experiment: Antimalarial activity against synchronized-ring stage chloroquine-sensitive Plasmodium falciparum 3D7 assessed as reduction in parasitemia measured upto 60 hrs post-treatment by Giemsa staining based light microscopic analysis (reference value: 3.9 %); type: functional; parameters: scale not given: the % may be the effect or the level left
[14] = Toxicity in mouse assessed as impairment of short-term memory at 200 mg/kg by novel object recognition test (reference value: 11.87 +/- 3.82 ); type: organism-based; details: in vivo
Falcipain-3 = target: T3, Falcipain-3 (Plasmodium falciparum 3D7, UniProt Q8IIL0); experiment: Binding affinity to N-terminal 6His-tagged recombinant Plasmodium falciparum FP3 expressed in Escherichia coli M15 assessed as dissociation constant by surface plasmon resonance analysis
T3 sequence (Q8IIL0 whole entry): T2 sequence (whole entry)

[15] = Toxicity in mouse assessed as cell necrosis in liver at 100 to 200 mg/kg measured after 7 days by hematoxylin and eosin staining based analysis; type: organism-based; details: in vivo, 168 h, dose 100-200 mg/kg, time 7 day
[16] = target: T4, Falcipain 2 (Plasmodium falciparum) (UniProt Q9N6S8); experiment: Binding affinity to N-terminal 6His-tagged recombinant Plasmodium falciparum FP2 expressed in Escherichia coli M15 assessed as dissociation rate constant (Koff) by surface plasmon resonance analysis
T4 sequence (whole entry): T1 sequence (Q9N6S8 whole entry)

[17] = Toxicity in mouse assessed as cell death in kidney at 100 to 200 mg/kg measured after 7 days by hematoxylin and eosin staining based analysis; type: organism-based; details: in vivo, 168 h, dose 100-200 mg/kg, time 7 day
[18] = Toxicity in mouse assessed as latency to fall off the rotating rod by measuring neuromuscular coordination index at 200 mg/kg by rotarod apparatus (reference value: 12.45 +/- 1.48 ); type: organism-based; details: in vivo
[19] = target: T4, Falcipain 2 (Plasmodium falciparum); experiment: Binding affinity to N-terminal 6His-tagged recombinant Plasmodium falciparum FP2 expressed in Escherichia coli M15 assessed as association rate constant (Kon) by surface plasmon resonance analysis
Plasmodium falciparum [20] = experiment: Synergistic antimalarial activity against chloroquine-sensitive Plasmodium falciparum 3D7 assessed as fractional inhibitory concentration incubated for 60 hrs in presence of chloroquine by SYBR Green staining based analysis; type: functional
Plasmodium falciparum [21] = experiment: Antimalarial activity against synchronized-ring stage chloroquine-sensitive Plasmodium falciparum 3D7 assessed as growth progression defect from ring to schizont stage measured upto 60 hrs post-treatment by Giemsa staining based light microscopic analysis; type: functional, organism-based
[22] = Toxicity in mouse assessed as cell death in spleen at 100 to 200 mg/kg measured after 7 days by hematoxylin and eosin staining based analysis; type: organism-based; details: in vivo, 168 h, dose 100-200 mg/kg, time 7 day

## O=C(Cn1cc(CN2CCN(c3ccnc4cc(Cl)ccc34)CC2)nn1)Nc1cccc([N+](=O)[O-])c1
[1]
  microsomal CLint at 2 µM: 13.5 µL/min/mg
Plasmodium falciparum [2]
  Ratio IC50: 1.95
Plasmodium berghei
  Activity: >7%
[3]
  Activity: Non-Toxic
Falcipain 2
  Ki: 0.527 µM
[4]
  microsomal CLint at 2 µM: 7.78 µL/min/mg
Plasmodium falciparum [5]
  Activity: Active
Plasmodium falciparum [6]
  IC50: 0.92 µM
[7]
  Activity: 14.17 s
[8]
  Drug metabolism: Metabolite_Detected
[9]
  Activity: 14.32 s
[10]
  Activity: Non-Toxic
Plasmodium falciparum [11]
  Activity: Active
[12]
  inhibition: 27.3%
Plasmodium falciparum [13]
  Activity: 1.03%
[14]
  Activity: 1.889
Falcipain-3
  Kd: 74 µM
[15]
  Activity: Non-Toxic
[16]
  K: 0.097 s⁻¹
[17]
  Activity: Non-Toxic
[18]
  Activity_index: 10.75
[19]
  K: 680 M⁻¹ s⁻¹
Plasmodium falciparum [20]
  fractional inhibitory concentration index (FICI): 0.5
Plasmodium falciparum [21]
  Activity: Active
[22]
  Activity: Non-Toxic
